Numbers after ± are expanded uncertainties.
Experiment: xn = mol fraction of the nth substance listed
Conditions: 100 kPa, Liquid; for viscosity: Cone and plate viscometry; for mass density: Vibrating tube method

CCCCCCCCCC[P+](CC)(CC)CC.O=[N+]([O-])c1cn[n-]c1 [decyltriethylphosphonium 4-nitropyrazolide] + CC[P+](CC)(CC)COCCOC.O=S(=O)([N-]S(=O)(=O)C(F)(F)F)C(F)(F)F
viscosity [mPa·s]
Conditions | 278.15 K | 283.15 K | 288.15 K | 293.15 K | 298.15 K | 303.15 K | 308.15 K | 313.15 K | 318.15 K | 323.15 K
x1 = 0.1 | 103 ± 13 | 79 ± 10 | 62 ± 8 | 49 ± 6 | – | – | – | – | – | –
x1 = 0.25 | 160 ± 20 | 120 ± 15 | 91 ± 11 | 72 ± 9 | 57 ± 7 | – | – | – | – | –
x1 = 0.499 | 334 ± 42 | 239 ± 30 | 174 ± 21 | 131 ± 16 | 101 ± 12 | 79 ± 10 | 64 ± 8 | 52 ± 6 | – | –
x1 = 0.75 | 716 ± 94 | 486 ± 62 | 337 ± 43 | 241 ± 30 | 178 ± 22 | 135 ± 16 | 104 ± 13 | 82 ± 10 | 66 ± 8 | 55 ± 7
x1 = 0.9 | 1198 ± 160 | 788 ± 100 | 531 ± 68 | 370 ± 47 | 265 ± 33 | 195 ± 24 | 149 ± 18 | 115 ± 14 | 91 ± 11 | 73 ± 9

CC[P+](CC)(CC)COCCOC.O=S(=O)([N-]S(=O)(=O)C(F)(F)F)C(F)(F)F + CCCCCCC[P+](CC)(CC)CC.O=[N+]([O-])c1cn[n-]c1
x2 = 0
Conditions | viscosity [mPa·s]
278.15 K | 84 ± 10
283.15 K | 65 ± 8
288.15 K | 51 ± 6

CCCCCC[n+]1ccn(C)c1.O=S(=O)([N-]S(=O)(=O)C(F)(F)F)C(F)(F)F + CCCCCCCC[P+](CC)(CC)CC.O=[N+]([O-])c1cn[n-]c1
x2 = 0
Conditions | mass density [kg/m3]
283.15 K | 1385.6 ± 12
288.15 K | 1381 ± 12
293.15 K | 1376.5 ± 12
295.15 K | 1374.6 ± 12
298.15 K | 1371.9 ± 12
303.15 K | 1367.3 ± 12
308.15 K | 1362.8 ± 12
313.15 K | 1358.3 ± 12
318.15 K | 1353.7 ± 12
323.15 K | 1349.2 ± 12
328.15 K | 1344.7 ± 12
333.15 K | 1340.3 ± 12
338.15 K | 1335.8 ± 12
343.15 K | 1331.4 ± 12
348.15 K | 1326.9 ± 12
353.15 K | 1322.5 ± 12

CCCC[n+]1cccn1C.O=S(=O)([N-]S(=O)(=O)C(F)(F)F)C(F)(F)F [1-butyl-2-methylpyrazolium bis(trifluoromethylsulfonyl)imide] + CCCCCCSC(N(C)C)=[N+](C)C.O=S(=O)([N-]S(=O)(=O)C(F)(F)F)C(F)(F)F
mass density [kg/m3]
Conditions | x2 = 0.251 | x2 = 0.502 | x2 = 0.748
283.15 K | 1431.2 ± 12 | 1400.4 ± 12 | 1375.8 ± 12
288.15 K | 1426.6 ± 12 | 1395.7 ± 12 | 1371.4 ± 12
293.15 K | 1421.9 ± 12 | 1391.4 ± 12 | 1366.9 ± 12
295.15 K | 1420.1 ± 12 | 1389.9 ± 12 | 1365.1 ± 12
298.15 K | 1417.3 ± 12 | 1387.4 ± 12 | 1362.4 ± 12
303.15 K | 1412.7 ± 12 | 1382 ± 12 | 1357.9 ± 12
308.15 K | 1408.1 ± 12 | 1377.6 ± 12 | 1353.5 ± 12
313.15 K | 1403.5 ± 12 | 1373.2 ± 12 | 1349 ± 12
318.15 K | 1398.9 ± 12 | 1368.8 ± 12 | 1344.6 ± 12
323.15 K | 1394.3 ± 12 | 1364.7 ± 12 | 1340.2 ± 12
328.15 K | 1389.7 ± 12 | 1360.4 ± 12 | 1335.8 ± 12
333.15 K | 1385.2 ± 12 | 1356 ± 12 | 1331.4 ± 12
338.15 K | 1380.6 ± 12 | 1351.7 ± 12 | 1327 ± 12
343.15 K | 1376.1 ± 12 | 1347.3 ± 12 | 1322.6 ± 12
348.15 K | 1371.6 ± 12 | 1342.8 ± 12 | 1318.3 ± 12
353.15 K | 1367.1 ± 12 | 1338.4 ± 12 | 1313.9 ± 12

CCCCCCn1cc[n+](C)c1C.O=[N+]([O-])c1cn[n-]c1 [1-hexyl-2,3-dimethylimidazolium 4-nitropyrazolide] + CCCCCCCC[P+](CC)(CC)CC.O=S(=O)([N-]S(=O)(=O)C(F)(F)F)C(F)(F)F
viscosity [mPa·s]
Conditions | 278.15 K | 283.15 K | 288.15 K | 293.15 K | 298.15 K | 303.15 K | 308.15 K | 313.15 K | 318.15 K | 323.15 K
x1 = 0.101 | 401 ± 51 | 284 ± 36 | 204 ± 25 | 151 ± 19 | 115 ± 14 | 90 ± 11 | 72 ± 9 | 57 ± 7 | – | –
x1 = 0.299 | 620 ± 81 | 421 ± 54 | 293 ± 37 | 211 ± 26 | 156 ± 19 | 120 ± 15 | 93 ± 11 | 74 ± 9 | 60 ± 7 | –
x1 = 0.499 | 992 ± 130 | 636 ± 83 | 423 ± 54 | 292 ± 37 | 209 ± 26 | 154 ± 19 | 118 ± 14 | 91 ± 11 | 72 ± 9 | 59 ± 7
x1 = 0.701 | 2252 ± 320 | 1345 ± 180 | 836 ± 110 | 543 ± 70 | 369 ± 47 | 259 ± 32 | 188 ± 23 | 140 ± 17 | 107 ± 13 | 84 ± 10
x1 = 0.899 | 6554 ± 990 | 3416 ± 500 | 1886 ± 260 | 1108 ± 150 | 689 ± 90 | 450 ± 58 | 307 ± 39 | 216 ± 27 | 157 ± 19 | 119 ± 15

CCCCCCn1cc[n+](C)c1C.O=S(=O)([N-]S(=O)(=O)C(F)(F)F)C(F)(F)F + CCCCCCCC[P+](CC)(CC)CC.O=[N+]([O-])c1cn[n-]c1
x2 = 0
Conditions | mass density [kg/m3]
283.15 K | 1373 ± 12
288.15 K | 1368.4 ± 12
293.15 K | 1363.9 ± 12
295.15 K | 1362.1 ± 12
298.15 K | 1359.5 ± 12
303.15 K | 1355.1 ± 12
308.15 K | 1350.8 ± 12
313.15 K | 1346.4 ± 12
318.15 K | 1342 ± 12
323.15 K | 1337.6 ± 12
328.15 K | 1333.2 ± 12
333.15 K | 1328.9 ± 12
338.15 K | 1324.5 ± 12
343.15 K | 1320.2 ± 12
348.15 K | 1315.8 ± 12
353.15 K | 1311.5 ± 12

CC[P+](CC)(CC)COCCOC.O=S(=O)([N-]S(=O)(=O)C(F)(F)F)C(F)(F)F + CCCCCCCCCC[P+](CC)(CC)CC.O=[N+]([O-])c1cn[n-]c1
x2 = 0
Conditions | viscosity [mPa·s]
278.15 K | 84 ± 10
283.15 K | 65 ± 8
288.15 K | 51 ± 6

CCCCCCn1cc[n+](C)c1C.O=S(=O)([N-]S(=O)(=O)C(F)(F)F)C(F)(F)F + CCCCCCCCCCCCCC[P+](CCCCCC)(CCCCCC)CCCCCC.O=S(=O)([N-]S(=O)(=O)C(F)(F)F)C(F)(F)F
viscosity [mPa·s]
Conditions | 278.15 K | 283.15 K | 288.15 K | 293.15 K | 298.15 K | 303.15 K | 308.15 K | 313.15 K | 318.15 K | 323.15 K
x2 = 0.2 | 707 ± 92 | 483 ± 62 | 336 ± 42 | 242 ± 30 | 179 ± 22 | 136 ± 17 | 106 ± 13 | 84 ± 10 | 68 ± 8 | 55 ± 7
x2 = 0.4 | 932 ± 120 | 634 ± 82 | 442 ± 56 | 317 ± 40 | 234 ± 29 | 177 ± 22 | 137 ± 17 | 107 ± 13 | 86 ± 10 | 71 ± 9
x2 = 0.596 | 1000 ± 130 | 683 ± 89 | 477 ± 61 | 342 ± 43 | 252 ± 31 | 190 ± 23 | 146 ± 18 | 115 ± 14 | 92 ± 11 | 75 ± 9
x2 = 0.749 | 1015 ± 140 | 698 ± 91 | 490 ± 63 | 353 ± 45 | 261 ± 33 | 196 ± 24 | 151 ± 18 | 119 ± 14 | 95 ± 12 | 77 ± 9
x2 = 0.898 | 1130 ± 150 | 786 ± 100 | 555 ± 72 | 400 ± 51 | 297 ± 37 | 224 ± 28 | 173 ± 21 | 135 ± 16 | 108 ± 13 | 80 ± 10

CCCCCCC[P+](CC)(CC)CC.O=[N+]([O-])c1cn[n-]c1 [triethylheptylphosphonium 4-nitropyrazolide] + CC[P+](CC)(CC)COCCOC.O=S(=O)([N-]S(=O)(=O)C(F)(F)F)C(F)(F)F
viscosity [mPa·s]
Conditions | 278.15 K | 283.15 K | 288.15 K | 293.15 K | 298.15 K | 303.15 K | 308.15 K | 313.15 K | 318.15 K | 323.15 K
x1 = 0.101 | 103 ± 13 | 80 ± 10 | 62 ± 8 | 50 ± 6 | – | – | – | – | – | –
x1 = 0.248 | 135 ± 17 | 101 ± 12 | 78 ± 9 | 61 ± 7 | 50 ± 6 | – | – | – | – | –
x1 = 0.5 | 234 ± 29 | 170 ± 21 | 126 ± 15 | 96 ± 12 | 75 ± 9 | 59 ± 7 | – | – | – | –
x1 = 0.75 | 474 ± 61 | 328 ± 41 | 231 ± 29 | 168 ± 21 | 126 ± 15 | 97 ± 12 | 76 ± 9 | 61 ± 7 | 50 ± 6 | –
x1 = 0.901 | 761 ± 100 | 510 ± 66 | 350 ± 44 | 249 ± 31 | 182 ± 22 | 137 ± 17 | 105 ± 13 | 84 ± 10 | 66 ± 8 | 54 ± 7

Source: the NIST ThermoML archive (doi:10.1021/acs.jced.7b00221)
